Measured values taken from patent EP0966282B1, “USE OF THE ANGIOTENSIN II ANTAGONISTS LOSARTAN AND EXP-3174 TO TREAT SYMPTOMATIC HEART FAILURE” (priority 1997, dated 1998).
Read-outs that look alike come from different tables or passages of the source. Marks after values point to notes of the source that are not given here.

Legend:
[1] = tested on: older patients with symptomatic heart failure; details: for hospitalized overall for any reason: 48-week study observation period, p=0.018; for died of progressive heart failure: number of patients in each treatment group; for sudden cardiac death: p=0.043; for female patients died: subpopulation of female patients: of 118 losartan-treated, of 122 captopril-treated; for patients classified as New York Heart Association Class I or II at the end of the study: week 48, versus 66 percent (losartan) and 64 percent (captopril) at baseline
Excerpt: The study was approved by institutional review boards at each site; all patients gave written informed consent. An independent Data and Safety Monitoring Committee monitored the progress of the study. See Pitt B, Chang P, Timmermans P. Angiotensin II receptor antagonists in heart failure: Rationale and design of the Evaluation of Losartan in the Elderly (ELITE) Trial. Cardiovascular Drugs and Therapy 1995; 9: 693-700.
A detailed description of enrollment and exclusion criteria and study design has been presented previously. See Pitt B, Chang P, Timmermans P. Angiotensin II receptor antagonists in heart failure: Rationale and design of the Evaluation of Losartan in the Elderly (ELITE) Trial. Cardiovascular Drugs and Therapy 1995; 9: 693-700.
Titration generally occurred at 7-day intervals as tolerated. Treatment with all other concomitant cardiovascular therapies was permitted with the exception of open-label ACE inhibitors. Randomized patients were stratified by age (less than 70 and 70 years or greater).
Clinical assessments were performed weekly during titration and at three-month intervals thereafter. Laboratory evaluations were performed at weeks three, six, and twelve, and at three month intervals thereafter.
See Example 2) Hypotension-related symptoms, clinically important serum potassium increases (≥ 0.5 mEq/L), and cough, all originally secondary endpoints, were moved to tertiary endpoints. All deaths (including cause of death) and hospitalizations were adjudicated by an independent Clinical Endpoint Adjudication Committee, blinded to study treatment (see panel for mortality classification). Other prospectively-defined measures included myocardial infarction/hospitalization for unstable angina, worsening of heart failure, New York Heart Association functional classification, discontinuation from the study due to study drug intolerance, changes in neurohormonal profile.
• Sudden Cardiac Death: Death occurring without warning or within 1 hour of symptoms • Death due to Progressive Heart Failure: Death preceded by worsening signs and/or symptoms of heart failure, including cardiogenic shock • Fatal Myocardial Infarction: Death associated with autopsy-verified myocardial infarction or death within 28 days of a hospital-verified acute myocardial infarction provided no other cardiac or non-cardiac cause of death is found • Death due to Other Cardiac Causes: Death due to other cardiac causes, such as arrhythmia • Death due to Other Vascular Causes: Death due to vascular events such as stroke, pulmonary embolus, ruptured aneurysm, etc. • Death due to non-cardiovascular causes: Death not due to any cardiac or vascular events
The power and sample-size estimates for this study have been described. See Pitt B, Chang P, Timmermans P. Angiotensin II receptor antagonists in heart failure: Rationale and design of the Evaluation of Losartan in the Elderly (ELITE) Trial. Cardiovascular Drugs and Therapy 1995; 9: 693-700. Analysis of renal dysfunction (increases in serum creatinine) was based upon a modified intent-to-treat population; i.e., all patients were analyzed according to their randomization group, and an endpoint was declared only if initial and confirmatory elevations occurred while on double-blind therapy. Patients who discontinued from the study without meeting this endpoint were censored in the time-to-event analysis at the time of study discontinuation.
Analyses of deaths and heart failure hospitalizations (adjudicated endpoints) were based on an intent-to-treat population; all patients discontinued prematurely were followed through the specified 48-week period of the study. Patients not meeting the endpoint were censored in the time-to-event analysis either at the time of study completion (for patients who completed) or at the end of the 48-week follow-up period (for patients who discontinued).
For all time-to-event data, survival analyses were based upon the log-rank test.

[2] = tested on: patients with symptomatic heart failure; test: Meta-analysis of clinical events, Protocols A & B (Peto-modified Mantel-Haenszel method); format: in vivo; details: for CHF Hospitalization, Odds Ratio / Death, Odds Ratio: Meta-analysis Protocols A & B, odds in placebo group relative to losartan group
Experimental: This report summarizes the results of the Meta-analysis performed (as proposed in the Data Analysis Plan) on the observed mortality and congestive heart failure (CHF) hospitalization across these two studies. The mortality and CHF hospitalization were not predefined endpoints in the protocols but it was intended that they be analyzed as a part of safety. Thus results from these analyses should not be interpreted as a test of significance as there were no predefined hypotheses corresponding to these safety parameters. […] Odds ratio's with 95% confidence intervals have been provided for these variables. Peto-modified Mantel-Haenszel (Fleiss, J.L., Statistical Methods for Rates and Proportions, Wiley, NY, 1981.) method was used to carry out the Meta-analysis of death and CHF hospitalization rates in the two 12 week exercise studies. This method assumes homogeneity across the studies and provides a test for heterogeneity. […] Since the results from protocols A and B are consistent, a safety Meta-analysis as proposed in the Data Analysis Plan has been performed. Homogeneity between the two studies with respect to odds ratio's for death and CHF hospitalization was found.

[3] = tested on: patients with symptomatic heart failure; test: Exercise study Protocol B: 12-week placebo-controlled study of losartan, clinical events; format: in vivo; details: for CHF Hospitalization (during DB) / Death: 12 weeks; for Death: during double-blind therapy or related to Serious AE during double-blind
Excerpt: (§1) Protocols A & B were, multicenter, double-blind, randomized, parallel, placebo-controlled studies to investigate the effects of losartan on the exercise capacity and clinical status of patients over the age of 18 with symptomatic heart failure.
(§2) Approximately three hundred and fifty (350) patients with symptomatic heart failure (NYHA Functional Class II-IV, at least 50% Class III-IV) and left ventricular ejection fraction ≤40% were randomized to receive either losartan or placebo once daily for 12 weeks in each study. Following a minimum 15-day baseline placebo period, during which a minimum of 5 and maximum of 8 sets of baseline exercise tests (treadmill exercise test and 6-minute walk test) were performed, patients were randomized to treatment with losartan or placebo in a 2:1 ratio, respectively. According to the protocol's, patients must not have received an ACE-inhibitor for at least 6 weeks prior to the third baseline exercise test visit. Treatment with an ACE-inhibitor was not allowed at any time during these studies.
(§3) This report summarizes the results of the Meta-analysis performed (as proposed in the Data Analysis Plan) on the observed mortality and congestive heart failure (CHF) hospitalization across these two studies. The mortality and CHF hospitalization were not predefined endpoints in the protocols but it was intended that they be analyzed as a part of safety. Thus results from these analyses should not be interpreted as a test of significance as there were no predefined hypotheses corresponding to these safety parameters. […] Odds ratio's with 95% confidence intervals have been provided for these variables.
(§4) Peto-modified Mantel-Haenszel (Fleiss, J.L., Statistical Methods for Rates and Proportions, Wiley, NY, 1981.) method was used to carry out the Meta-analysis of death and CHF hospitalization rates in the two 12 week exercise studies. This method assumes homogeneity across the studies and provides a test for heterogeneity.
A total of three hundred and eighty five (385) patients were enrolled in the protocol B exercise study; 254 patients were randomized to receive losartan and 131 patients were randomized to receive placebo. There were 9 (6.9%) deaths in the placebo group as compared to 3 (1.2%) in the losartan group during the double-blind therapy or as related to serious AE during double-blind. Additionally there were 7 (5.3%) CHF hospitalizations in the placebo group as compared to 5 (2.0%) in the losartan group during the double-blind therapy or as related to serious AE during double-blind.

[4] = tested on: patients with symptomatic heart failure; test: Exercise study Protocol A: 12-week placebo-controlled study of losartan, clinical events; format: in vivo; details: for CHF Hospitalization (during DB) / Death: 12 weeks; for CHF Hospitalization (during DB): one patient hospitalized 2 days after discontinuation included; for Death: during double-blind therapy or related to SAE during double-blind
Excerpt: as §1, §2, §3, §4
A total of three hundred and fifty one (351) patients were enrolled in the protocol A study; 237 patients were randomized to receive losartan and 114 patients were randomized to receive placebo. There were 4 (3.5%) deaths in the placebo group as compared to 4 (1.7%) in the losartan group during the double-blind therapy or as related to serious adverse events (AE) during double-blind. Additionally there were 10 (8.8%) CHF hospitalizations in the placebo group as compared to 10 (4.2%) in the losartan group during the double-blind therapy or as related to serious AE during double-blind. One patient included in the losartan group discontinued due to worsening HF and was hospitalized 2 days after discontinuation from double-blind period.

[5] = of 352 losartan-treated, of 370 captopril-treated patients
[6] = number of patients of 254 randomized to losartan
[7] = odds in placebo group relative to losartan group
[8] = number of patients of 237 randomized to losartan
[9] = losartan compared to captopril, controlled for age category
[10] = losartan compared to captopril, negative = increase in risk

C[C@H](CS)C(=O)N1CCC[C@H]1C(=O)O [Captopril, captopril, reference compound]
hospitalized overall for any reason ([1]; number of patients): 119 patients
hospitalized overall for any reason [1]: 32.2%
incidence of heart failure hospitalizations ([1]; 48 weeks): 5.7%
incidence of death due to progressive heart failure ([1]; human, in vivo): less than one
Cause of death: Cardiovascular, Fatal Myocardial Infarction ([1]; intent-to-treat, 48 weeks): 4 ( 1.1) number (percent) of patients
Cause of death: Cardiovascular, Other Vascular ([1]; intent-to-treat, 48 weeks): 5 ( 1.4) number (percent) of patients
Cause of death: Cardiovascular, Progressive Heart Failure ([1]; intent-to-treat, 48 weeks): 1 ( 0.3) number (percent) of patients
Cause of death: Cardiovascular, Sudden Death ([1]; intent-to-treat, 48 weeks): 14 ( 3.8) number (percent) of patients
Cause of death: Non-cardiovascular ([1]; intent-to-treat, 48 weeks): 8 ( 2.2) number (percent) of patients
Death and/or Hospitalization for Heart Failure ([1]; intent-to-treat, 48 weeks): 49 (13.2) number (percent) of patients
Hospitalization for Heart Failure ([1]; intent-to-treat, 48 weeks): 21 ( 5.7) number (percent) of patients
total mortality ([1]; intent-to-treat, 48 weeks): 32 ( 8.7) number (percent) of patients
Fatal myocardial infarction ([1]; number of patients): four
died of progressive heart failure [1]: one
total mortality ([1]; number of patients, p=0.035): 32 patients
sudden cardiac death ([1]; number of patients): 14 patients
death and/or heart failure hospitalizations [1, 5]: 49 patients
death and/or heart failure hospitalizations ([1]; percent of patients, p=0.075): 13.2%
female patients died [1]: 8 patients
patients classified as New York Heart Association Class I or II at the end of the study [1]: 82%

CCCCc1nc(Cl)c(CO)n1Cc1ccc(-c2ccccc2-c2nn[nH]n2)cc1 [Losartan]
CHF Hospitalization, Odds Ratio [2]: 2.4*
Death, Odds Ratio [2]: 3.5*
CHF Hospitalization, Odds Ratio ([2]; listed as losartan): 2.4
Death, Odds Ratio ([2]; listed as losartan): 3.5
CHF Hospitalization (during double-blind) ([2]; Protocols A & B combined): 3.1% ^a
Death ([2]; Protocols A & B combined, during double-blind therapy or related to Serious AE): 1.4%
CHF Hospitalization (during DB) [3]: 2.0%
CHF Hospitalization (during DB) ([3]; listed as losartan): 2.0%
Death [3]: 1.2%
Death ([3]; listed as losartan): 1.2%
CHF hospitalizations [3, 6]: 5
deaths [3, 6]: 3
CHF Hospitalization, Odds Ratio [3, 7]: 2.7
Death, Odds Ratio [3, 7]: 5.6*
Death, Odds Ratio ([3]; odds in placebo group relative to losartan group, listed as losartan): 5.6
CHF Hospitalization (during DB) [4]: 4.2%^a
CHF Hospitalization (during DB) ([4]; listed as losartan): 4.2%
Death [4]: 1.7%
Death ([4]; listed as losartan): 1.7%
CHF hospitalizations [4, 8]: 10
deaths [4, 8]: 4
CHF Hospitalization, Odds Ratio [4, 7]: 2.2
Death, Odds Ratio [4, 7]: 2.1
hospitalized overall for any reason ([1]; number of patients): 86 patients
hospitalized overall for any reason [1]: 24.4%
incidence of heart failure hospitalizations ([1]; 48 weeks): 5.7%
Single rises of serum creatinine ≥0.3 mg/dL, risk reduction ([1]; human, in vivo): 14%
incidence of death due to progressive heart failure ([1]; human, in vivo): less than one
patients discontinued for renal function reason ([1]; human, in vivo): less than 2%
persistent increases in serum creatinine ≥0.3 mg/dL from baseline ([1]; human, in vivo): 10.5%
tolerability ([1]; human, in vivo): better tolerated compared to captopril
Cause of death: Cardiovascular, Fatal Myocardial Infarction ([1]; intent-to-treat, 48 weeks): 1 (0.3) number (percent) of patients
Cause of death: Cardiovascular, Other Vascular ([1]; intent-to-treat, 48 weeks): 5 (1.4) number (percent) of patients
Cause of death: Cardiovascular, Progressive Heart Failure ([1]; intent-to-treat, 48 weeks): 1 (0.3) number (percent) of patients
Cause of death: Cardiovascular, Sudden Death ([1]; intent-to-treat, 48 weeks): 5 (1.4) number (percent) of patients
Cause of death: Non-cardiovascular ([1]; intent-to-treat, 48 weeks): 5 (1.4) number (percent) of patients
Death and/or Hospitalization for Heart Failure ([1]; intent-to-treat, 48 weeks): 33 (9.4) number (percent) of patients
Hospitalization for Heart Failure ([1]; intent-to-treat, 48 weeks): 20 (5.7) number (percent) of patients
total mortality ([1]; intent-to-treat, 48 weeks): 17 (4.8) number (percent) of patients
Death and/or Hospitalization for Heart Failure, RISK REDUCTION (95% CI) [1, 9]: 0.32 (- 0.04, 0.55)
Fatal Myocardial Infarction, RISK REDUCTION (95% CI) [1, 9]: 0.76 (- 0.83, 0.97)
Hospitalization for Heart Failure, RISK REDUCTION (95% CI) [1, 9]: 0.04 (- 0.74, 0.47)
Non-cardiovascular death, RISK REDUCTION (95% CI) [1, 9]: 0.35 (- 0.94, 0.78)
Sudden Death, RISK REDUCTION (95% CI) [1, 9]: 0.64 ( 0.03, 0.86)
Total Mortality, RISK REDUCTION (95% CI) [1, 9]: 0.46 ( 0.05, 0.69)
Death from Other Vascular causes, RISK REDUCTION (95% CI) [1, 10]: -0.03 (- 2.63, 0.71)
Death from Progressive Heart Failure, RISK REDUCTION (95% CI) [1, 10]: -0.11 (-20.23, 0.94)
decrease in total mortality (lower risk of death) ([1]; losartan versus captopril, 48 weeks, P=0.035): 46%
Fatal myocardial infarction ([1]; number of patients): one
died of progressive heart failure [1]: one
total mortality ([1]; number of patients, p=0.035): 17 patients
sudden cardiac death ([1]; number of patients): five
death and/or heart failure hospitalizations [1, 5]: 33 patients
death and/or heart failure hospitalizations ([1]; percent of patients, p=0.075): 9.4%
female patients died [1]: 9 patients
patients classified as New York Heart Association Class I or II at the end of the study [1]: 80%
